Patent publication US20230103631A1, “PEPTIDES AS SELECTIVE GIP RECEPTOR AGONISTS” (Sanofi, priority 2020, published 2023)
*1 amine or outer side, *2 acyl side, *3 side chain or, on linkers, in order; H or OH if unused. Where a SMILES comes first, the peptide text is derived from it. Side-chain parts run from the residue outwards. [ ]: non-standard residue; d: D form. The star is where a group is joined. C18 diacid = O=C(O)CCCCCCCCCCCCCCCCC(=O)*; γGlu = O=C(O)[C@H](CCC(=O)[*:2])N[*:1]; AEEA = NCCOCCOCC(=O)O; Aib = CC(C)(N)C(=O)O

Columns and labels:
[1] = Pharmacokinetic evaluation in minipigs; assay type: in vivo; settings: female, Gottingen, minipig, plasma
[2] = Pharmacokinetic evaluation in mice; assay type: in vivo; settings: female, C57Bl/6, mouse, plasma
Protocol: Compounds were administered in a suitable buffer system, e.g. PBS buffer solution at pH7.4 or DPBS solution at concentrations of 0.05, 0.1, 0.5 or 1 mg/ml depending on dose, species and administration volume.
Female C57Bl/6 mice were dosed 0.25 mg/kg, 0.5 mg/kg or 1 mg/kg intravenously (i.v.) or subcutaneously (s.c.). The mice were sacrificed, and blood samples were collected after 0.08, 0.25, 0.5, 1, 2, 4, 8, 24, 32, and 48 h post i.v. application and 0.25, 0.5, 1, 2, 4, 8, 24, 32, and 48 h post s.c. application, respectively. Plasma samples were analyzed after protein precipitation via liquid chromatography mass spectrometry (LC/MS). PK parameters and half-life were calculated using Phoenix-WinNonlin 8.1 using a non-compartmental model and linear trapezoidal interpolation calculation.
Pharmacokinetic profiles were determined as described in Methods.

Work on `CC[C@H](C)[C@H](NC(=O)[C@H](Cc1ccccc1)NC(=O)[C@H](CCC(=O)O)NC(=O)[C@H](CCC(=O)O)NC(=O)[C@H](CCC(N)=O)NC(=O)[C@H](Cc1c[nH]cn1)NC(=O)[C@@H](NC(=O)[C@H](CCCNC(=N)N)NC(=O)[C@H](CC(=O)O)NC(=O)[C@H](CCCCNC(=O)COCCOCCNC(=O)COCCOCCNC(=O)CC[C@H](NC(=O)CCCCCCCCCCCCCCCCC(=O)O)C(=O)O)NC(=O)C(C)(C)NC(=O)[C@@H](NC(=O)[C@H](CO)NC(=O)[C@H](CC(C)C)NC(=O)[C@H](CC(=O)O)NC(=O)[C@H](CO)NC(=O)[C@@H](NC(=O)[C@H](Cc1ccccc1)NC(=O)[C@@H](NC(=O)CNC(=O)[C@H](CCC(=O)O)NC(=O)C(C)(C)NC(=O)[C@@H](N)Cc1ccc(O)cc1)[C@@H](C)O)[C@@H](C)CC)[C@@H](C)CC)[C@@H](C)CC)C(=O)N[C@@H](CCC(=O)O)C(=O)N[C@@H](Cc1c[nH]c2ccccc12)C(=O)N[C@@H](CC(C)C)C(=O)N[C@@H](CC(C)C)C(=O)N[C@@H](C)C(=O)N[C@@H](CCC(N)=O)C(=O)NCC(=O)N1CCC[C@H]1C(=O)N[C@@H](CO)C(=O)N[C@@H](CO)C(=O)NCC(=O)N[C@@H](C)C(=O)N1CCC[C@H]1C(=O)N1CCC[C@H]1C(=O)N1CCC[C@H]1C(=O)N[C@@H](CO)C(N)=O` [SEQ ID NO: 9, H2N-Y-Aib-E-G-T-F-I-S-D-I-S-I-Aib-K[{AEEA}2-gGlu-C18OH]-DRIHQEEFIEWILAQGPSSGAPPPS-NH2] (H-Y[Aib]EGTFISDLSI[Aib]K([AEEA-AEEA-γGlu-C18 diacid])DRIHQEEFIEWLLAQGPSSGAPPPS-NH2) yielded an AUC(0-t) ([1]; iv, 0.05 mg/kg i.v.) of 177 µg·h/mL, a Cmax ([1]; iv, 0.05 mg/kg i.v.) of 5530 ng/mL and a half-life ([1]; iv, 0.05 mg/kg i.v.) of 75.8 h. It also gave a clearance ([1]; iv, 0.05 mg/kg i.v., read-out: CI (converted)) of 0.16 mL/h/kg, an AUC(0-t) ([1]; sc, 0.1 mg/kg s.c.) of 228 µg·h/mL and a Cmax ([1]; sc, 0.1 mg/kg s.c.) of 3080 ng/mL. It also gave a bioavailability ([1]; sc, 0.1 mg/kg s.c.) of 64%, an AUC(0-t) ([2]; iv, 0.25 mg/kg i.v.) of 25.7 µg·h/mL and a Cmax ([2]; iv, 0.25 mg/kg i.v.) of 3920 ng/mL. For the same compound, the half-life ([2]; iv, 0.25 mg/kg i.v.) was 8 h, the clearance ([2]; iv, 0.25 mg/kg i.v., read-out: CI (converted)) was 9.59 mL/h/kg and the AUC(0-t) ([2]; sc, 0.5 mg/kg s.c.) was 42.2 µg·h/mL. The Cmax ([2]; sc, 0.5 mg/kg s.c.) was 2190 ng/mL, the bioavailability ([2]; sc, 0.5 mg/kg s.c.) was 82% and the half-life ([2]; sc, 0.5 mg/kg s.c.) was 7.3 h.
